{
  "source": "patent US12569503B2",
  "about": "“Methods and compositions for substituted axially-chiral cannabinol analogs” (University of Florida Research Foundation, Inc., priority 2019, dated 2026)",
  "key": {"[1]": {"biological_target": "cannabinoid receptors", "settings": "in a variety of studies, cited from earlier work"}, "[2]": {"system": "mice", "experiment": "Acute thermal antinociception (tail-flick, modified tetrad assay)", "assay_type": "in vivo", "settings": "THC 10-56 mg/kg, ax-CBN 56-320 mg/kg"}, "[3]": {"system": "C57bl/6j mice", "experiment": "Reduction of body temperature (hypothermia)", "settings": "for Effect on body temperature (in words): mice, THC 10-56 mg/kg, ax-CBN 56-320 mg/kg"}, "[4]": {"experiment": "Reduction of body temperature (hypothermia)", "settings": "C57bl/6j, mouse, in vivo, Body Temp. ED50 ((95% CL) mg/kg), Table 4; hypothermia"}, "[5]": {"system": "mice", "experiment": "Locomotion measured as ambulatory time (modified tetrad assay)", "assay_type": "in vivo", "settings": "for Locomotion (in words): modified tetrad assay, THC 10-56 mg/kg, ax-CBN 56-320 mg/kg"}, "[6]": {"experiment": "Locomotion measured as ambulatory time (modified tetrad assay)", "assay_type": "in vivo, mice", "settings": "C57bl/6j, mouse, in vivo; Table 4; read-out: Hypolocomotion ED50 ((95% CL)"}, "[7]": {"system": "mice trained to discriminate 10 mg/kg THC", "settings": "rimonabant 0.32 and 1 mg/kg versus vehicle; cited from earlier work"}},
  "note": "“Also recorded” adds a separate entry of the source.",
  "data": [
    {"compound": "CCCCCc1cc(O)c2c(c1)OC(C)(C)[C@@H]1CCC(C)=C[C@@H]21", "note": "[THC, (−)-trans-Δ^9-tetrahydrocannabinol]", "values": [
      {"measurement": "Ki", "setting": "[1]; read-out: Binding affinity for cannabinoid receptors", "result": "20 to 40", "unit": "nM"},
      {"measurement": "Acute thermal antinociception (in words)", "setting": "[2]", "result": "dose-relatedly produced thermal antinociception"},
      {"measurement": "Effect on body temperature (in words)", "setting": "[3]", "result": "robust depression of body temperature; also recorded: hypothermia"},
      {"measurement": "ED50", "setting": "[4]", "result": 17.5, "unit": "mg/kg"},
      {"measurement": "Locomotion (in words)", "setting": "[5]", "result": "decreased locomotion"},
      {"measurement": "ED50", "setting": "[6]", "result": 25.5, "unit": "mg/kg"}
    ]},
    {"compound": "CCCCCc1cc(O)c2c(c1)OC(C)(C)c1ccc(C)cc1-2", "note": "[CBN, cannabinol]", "values": [
      {"measurement": "Binding affinity for cannabinoid receptors", "setting": "[1]", "result": "significantly higher"}
    ]},
    {"compound": "10-methyl-CBN [ax-CBN]", "values": [
      {"measurement": "Acute thermal antinociception (in words)", "setting": "[2]", "result": "dose-relatedly produced thermal antinociception"},
      {"measurement": "Body Temp. ED50 ((95% CL)", "setting": "[3]; Table 4, hypothermia", "result": 308.98, "unit": "mg/kg"},
      {"measurement": "Effect on body temperature (in words)", "setting": "[3]", "result": "hypothermia"},
      {"measurement": "Hypolocomotion ED50 ((95% CL)", "setting": "[5]; Table 4", "result": 290.20, "unit": "mg/kg"},
      {"measurement": "Locomotion (in words)", "setting": "[5]", "result": "decreased locomotion"}
    ]},
    {"compound": "Cc1c(C(=O)NN2CCCCC2)nn(-c2ccc(Cl)cc2Cl)c1-c1ccc(Cl)cc1", "note": "[rimonabant]", "values": [
      {"measurement": "Effect on THC dose effect in drug discrimination (in words)", "setting": "[7]", "result": "antagonizes the dose effect of THC"}
    ]}
  ]
}
